This note sets out measurements from patent US20260285888A1, “HETEROCYCLIC COMPOUND AND USE THEREOF” (OTSUKA PHARMACEUTICAL CO., LTD., priority 2023, published 2026).

Data set [1] is described as follows: Study for confirmation of conversion to brexpiprazole in a buffer (stability of the evaluation compounds). Type of data set: physicochemical. Particulars: in buffer, average of duplicate; for Concentration of brexpiprazole formed: 60-minute reaction sample; for Concentration of evaluation compound decreased: decrease in 60-minute vs 0-minute reaction sample. The method, boiled down:
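Compounds (final 1 μmol/L, from 100 μmol/L working solutions) incubated in buffer at 37° C. for 0 or 60 min, in duplicate, after 3 min pre-incubation of the reaction solution. Reactions stopped with acetonitrile/isopropanol (4:1) containing internal standards; compound and formed brexpiprazole quantified against 0.01–1 μmol/L calibration samples.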

The next data set in a line: in vitro. Type of data set: cell-based, human. Particulars: human, 300 μmol/L, about 24 hours, PMA-differentiated HL-60 cells, LDH, no-treatment 0%, cell lysis buffer 100%, read-out: cytotoxicity (%) Evaluation compound results. The procedure: An HL-60 cell line (human acute promyelocytic leukemia cells) was successively cultured in RPMI 1640 containing 20% fetal bovine serum (FBS) at 37° C. in 95% atmosphere/5% CO2. Before evaluation, the cells were pre-cultured for about 72 hours in the presence of 10 nM phorbol 12-myristate 13-acetate (PMA) to induce macrophage-like differentiation.
Evaluation compounds were dissolved in DMSO to obtain 30 mmol/L solutions (or suspensions). Each DMSO solution was diluted 100-fold with RPMI 1640 containing 2% FBS (final concentration of the compound: 300 μmol/L) to obtain a treatment solution. The culture supernatant of the differentiated HL-60 cells was removed, and each treatment solution was added and cultured for about 24 hours, followed by cytotoxicity evaluation.
The activity of lactate dehydrogenase (LDH) was measured in the treatment solutions exposed to the cells for about 24 hours by using a commercial kit (Cytotoxicity LDH Assay Kit-WST, Dojindo Laboratories) and a plate reader (Tecan Infinite M1000). The obtained measurement values were used to calculate cytotoxicity (%) as comparison values for each evaluation compound-treated group, with the no-treatment group taken as 0% and the cell lysis buffer-treated group taken as 100%. The test was conducted in triplicate in three wells each, and the average values were used as adopted values.

Where two headings read alike, the source gives them in different places.

Take `COCCN(CCOC)P(=O)([O-])OC[N+]1(CCCCOc2ccc3ccc(=O)[nH]c3c2)CCN(c2cccc3sccc23)CC1` [EX 153, (4-(benzo[b]thiophen-4-yl)-1-(4-((2-oxo-1.2-dihydroquinolin-7-yl)oxy)butyl)piperazin-1-ium-1-yl)methyl bis(2-methoxyethyl)phosphoramidate]: in data set [1], the “Concentration of brexpiprazole formed” value came out at 0 nM and the “Concentration of evaluation compound decreased” value was -10 nM. The cytotoxicity at 24 h, 300 µM in the data set “in vitro” is -7%.

With `COCCOP(=O)([O-])OC[N+]1(CCCCOc2ccc3ccc(=O)[nH]c3c2)CCN(c2cccc3sccc23)CC1` [EX 12, (4-(benzo[b]thiophen-4-yl)-1-(4-((2-oxo-1,2-dihydroquinolin-7-yl)oxy)butyl)piperazin-1-ium-1-yl)methyl (2-methoxyethyl) phosphate], in data set [1], the “Concentration of brexpiprazole formed” value is 0 nM and the “Concentration of evaluation compound decreased” value was determined as 20 nM. In the data set “in vitro” (differentiated hl-60 cells), the cytotoxicity at 24 h, 300 µM is -7%.

As to `CC1(C)O[C@H]2[C@@H](O1)[C@@H](COP(=O)([O-])OC[N+]1(CCCCOc3ccc4ccc(=O)[nH]c4c3)CCN(c3cccc4sccc34)CC1)O[C@@H]1OC(C)(C)O[C@@H]12` [EX 100, (4-(benzo[b]thiophen-4-yl)-1-(4-((2-oxo-1,2-dihydroquinolin-7-yl)oxy)butyl)piperazin-1-ium-1-yl)methyl (((3aR,5R,5aS,8aS,8bR)-2,2,7,7-tetramethyltetrahydro-5H-bis([1,3]dioxolo)[4,5-b:4′,5′-d]pyran-5-yl)methyl)phosphate], in data set [1], the “Concentration of brexpiprazole formed” value was determined as 0 nM and the “Concentration of evaluation compound decreased” value was determined as 50 nM. Further, the cytotoxicity at 24 h, 300 µM in the data set “in vitro” (differentiated hl-60 cells) is -3%.

For `O=C(OCOP(=O)([O-])OC[N+]1(CCCCOc2ccc3ccc(=O)[nH]c3c2)CCN(c2cccc3sccc23)CC1)C1CCOCC1` [EX 127, (4-(benzo[b]thiophen-4-yl)-1-(4-((2-oxo-1,2-dihydroquinolin-7-yl)oxy)butyl)piperazin-1-ium-1-yl)methyl (((tetrahydro-2H-pyran-4-carbonyl)oxy)methyl) phosphate], in data set [1], the “Concentration of brexpiprazole formed” value is 0 nM and the “Concentration of evaluation compound decreased” value amounted to 40 nM. The cytotoxicity at 24 h, 300 µM in the data set “in vitro” (differentiated hl-60 cells) amounted to 0%.

As for `O=C(OCCCCCCOP(=O)([O-])OC[N+]1(CCCCOc2ccc3ccc(=O)[nH]c3c2)CCN(c2cccc3sccc23)CC1)c1ccccc1` [EX 57, (4-(benzo[b]thiophen-4-yl)-1-(4-((2-oxo-1,2-dihydroquinolin-7-yl)oxy)butyl)piperazin-1-ium-1-yl)methyl (6-(benzoyloxy)hexyl) phosphate], in data set [1], the “Concentration of brexpiprazole formed” value was determined as 0 nM and the “Concentration of evaluation compound decreased” value stood at 90 nM. Further, the cytotoxicity at 24 h, 300 µM in the data set “in vitro” (differentiated hl-60 cells) is 4%.

In the case of `O=C(CCO)OCOP(=O)([O-])OC[N+]1(CCCCOc2ccc3ccc(=O)[nH]c3c2)CCN(c2cccc3sccc23)CC1` [EX 125, (4-(benzo[b]thiophen-4-yl)-1-(4-((2-oxo-1,2-dihydroquinolin-7-yl)oxy)butyl)piperazin-1-ium-1-yl)methyl (((3-hydroxypropanoyl)oxy)methyl) phosphate], in data set [1], the “Concentration of brexpiprazole formed” value came out at 0 nM and the “Concentration of evaluation compound decreased” value was found to be 130 nM. Besides, the cytotoxicity at 24 h, 300 µM in the data set “in vitro” (differentiated hl-60 cells) is -7%.

`O=c1ccc2ccc(OCCCC[N+]3(COP(=O)([O-])OCCCCCCO)CCN(c4cccc5sccc45)CC3)cc2[nH]1` [EX 44, (4-(benzo[b]thiophen-4-yl)-1-(4-((2-oxo-1,2-dihydroquinolin-7-yl)oxy)butyl)piperazin-1-ium-1-yl)methyl (6-hydroxyhexyl) phosphate]: in data set [1], the “Concentration of brexpiprazole formed” value was 0 nM and the “Concentration of evaluation compound decreased” value is -50 nM. Further, the cytotoxicity at 24 h, 300 µM in “in vitro” (differentiated hl-60 cells) is -8%.

As to `CCOC(=O)CCCCCOC(=O)OCOP(=O)([O-])OC[N+]1(CCCCOc2ccc3ccc(=O)[nH]c3c2)CCN(c2cccc3sccc23)CC1` [EX 144], in data set [1], the “Concentration of brexpiprazole formed” value worked out at 0 nM and the “Concentration of evaluation compound decreased” value is 120 nM. In addition, in “in vitro” (differentiated hl-60 cells), the cytotoxicity at 24 h, 300 µM came out at 18%.
